Patent US20230111310A1, “CARBOXYLIC ACID DERIVATIVE-SUBSTITUTED IMINO ARYL COMPOUND, PREPARATION METHOD THEREFOR, HERBICIDAL COMPOSITION AND USE THEREOF” (Qingdao Kingagroot Chemical Compound Co., Ltd., priority 2020, published 2023)

Key:
Test in all cases: Weeding effect in post-emergence stage
Type in all cases: in vivo
[1] = test system: Eleusine indica; conditions: for Weeding effect in post-emergence stage, Eleusine indica (level): fresh weight control rate level; for Weeding effect in post-emergence stage, Eleusine indica: level of fresh weight growth control rate
Outline: (§1)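 Pot-grown weeds were sprayed at the 2-3 leaf stage, 2 weeks after sowing, with compound in acetone plus Tween 80 and 1.5 liter/ha methyl oleate emulsifiable concentrate, diluted in water. Doses were 500, 250, 125, 60, 30, 15, 7.5 g/ha. Growth control was scored after 3 weeks in greenhouse; mean of three replicates.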

[2] = test system: Alopecurus japonicus; conditions: for Weeding effect in post-emergence stage, Alopecurus japonicus (level): fresh weight control rate level; for Weeding effect in post-emergence stage, Alopecurus japonicus: level of fresh weight growth control rate
Outline: as §1

[3] = test system: Digitaria sanguinalis; conditions: for Weeding effect in post-emergence stage, Digitaria sanguinalis (level): fresh weight control rate level; for Weeding effect in post-emergence stage, Digitaria sanguinalis: level of fresh weight growth control rate
Outline: as §1

[4] = test system: Abutilon theophrasti; conditions: for Weeding effect in post-emergence stage, Abutilon theophrasti (level): fresh weight control rate level; for Weeding effect in post-emergence stage, Abutilon theophrasti: level of fresh weight growth control rate
Outline: as §1

[5] = test system: Setaria viridis; conditions: for Weeding effect in post-emergence stage, Setaria viridis (level): fresh weight control rate level; for Weeding effect in post-emergence stage, Setaria viridis: level of fresh weight growth control rate
Outline: as §1

[6] = test system: Echinochloa crusgalli; conditions: for Weeding effect in post-emergence stage, Echinochloa crusgalli (level): fresh weight control rate level; for Weeding effect in post-emergence stage, Echinochloa crusgalli: level of fresh weight growth control rate
Outline: as §1

| Structure (SMILES) | Weeding effect in post-emergence stage, Eleusine indica ([1]; Dose 15 g/ha) | Weeding effect in post-emergence stage, Alopecurus japonicus ([2]; Dose 15 g/ha) | Weeding effect in post-emergence stage, Digitaria sanguinalis ([3]; Dose 15 g/ha) | Weeding effect in post-emergence stage, Abutilon theophrasti ([4]; Dose 15 g/ha) | Weeding effect in post-emergence stage, Setaria viridis ([5]; Dose 15 g/ha) | Weeding effect in post-emergence stage, Echinochloa crusgalli ([6]; Dose 15 g/ha) | further results |
| --- | --- | --- | --- | --- | --- | --- | --- |
| COC(=O)C(C)NN=Cc1cc(-n2c(=O)n(C)c(=S)n(C)c2=O)c(F)cc1Cl (stereo not drawn) [Compound 881] | – | – | – | – | – | – | Weeding effect in post-emergence stage, Eleusine indica (level) ([1]; Dose 30 g/ha): 5 (Level 5: growth control rate is above 85%); Weeding effect in post-emergence stage, Alopecurus japonicus (level) ([2]; Dose 30 g/ha): 5 (Level 5: growth control rate is above 85%); Weeding effect in post-emergence stage, Digitaria sanguinalis (level) ([3]; Dose 30 g/ha): 5 (Level 5: growth control rate is above 85%); Weeding effect in post-emergence stage, Abutilon theophrasti (level) ([4]; Dose 30 g/ha): 5 (Level 5: growth control rate is above 85%); Weeding effect in post-emergence stage, Setaria viridis (level) ([5]; Dose 30 g/ha): 5 (Level 5: growth control rate is above 85%); Weeding effect in post-emergence stage, Echinochloa crusgalli (level) ([6]; Dose 30 g/ha): 5 (Level 5: growth control rate is above 85%) |
| COC(=O)[C@H](OC)O/N=C/c1cc(-n2c(=O)cc(C(F)(F)F)n(C)c2=O)c(F)cc1Cl [321(R)] | – | – | – | – | – | – | Weeding effect in post-emergence stage, Eleusine indica ([1]; Dose 120 g/ha): 5 (Level 5: growth control rate is above 85%); Weeding effect in post-emergence stage, Alopecurus japonicus ([2]; Dose 120 g/ha): 5 (Level 5: growth control rate is above 85%); Weeding effect in post-emergence stage, Digitaria sanguinalis ([3]; Dose 120 g/ha): 5 (Level 5: growth control rate is above 85%); Weeding effect in post-emergence stage, Abutilon theophrasti ([4]; Dose 120 g/ha): 5 (Level 5: growth control rate is above 85%); Weeding effect in post-emergence stage, Setaria viridis ([5]; Dose 120 g/ha): 5 (Level 5: growth control rate is above 85%); Weeding effect in post-emergence stage, Echinochloa crusgalli ([6]; Dose 120 g/ha): 5 (Level 5: growth control rate is above 85%) |
| C[C@@H](O/N=C/c1cc(-n2c(=O)cc(C(F)(F)F)n(C)c2=O)c(F)cc1Cl)C(=O)O [193(R)] | 5 (Level 5: growth control rate is above 85%) | 5 (Level 5: growth control rate is above 85%) | 5 (Level 5: growth control rate is above 85%) | 5 (Level 5: growth control rate is above 85%) | 5 (Level 5: growth control rate is above 85%) | 5 (Level 5: growth control rate is above 85%) | – |
| CC(C#N)COC(=O)[C@@H](C)O/N=C/c1cc(-n2c(=O)cc(C(F)(F)F)n(C)c2=O)c(F)cc1Cl (stereo partly drawn) [445(R)] | – | – | – | – | – | – | Weeding effect in post-emergence stage, Eleusine indica (level) ([1]; Dose 15 g/ha): 5 (Level 5: growth control rate is above 85%); Weeding effect in post-emergence stage, Alopecurus japonicus (level) ([2]; Dose 15 g/ha): 5 (Level 5: growth control rate is above 85%); Weeding effect in post-emergence stage, Digitaria sanguinalis (level) ([3]; Dose 15 g/ha): 5 (Level 5: growth control rate is above 85%); Weeding effect in post-emergence stage, Abutilon theophrasti (level) ([4]; Dose 15 g/ha): 5 (Level 5: growth control rate is above 85%); Weeding effect in post-emergence stage, Setaria viridis (level) ([5]; Dose 15 g/ha): 5 (Level 5: growth control rate is above 85%); Weeding effect in post-emergence stage, Echinochloa crusgalli (level) ([6]; Dose 15 g/ha): 5 (Level 5: growth control rate is above 85%) |
| C[C@@H](O/N=C/c1cc(-n2c(=O)cc(C(F)(F)F)n(C)c2=O)c(F)cc1Cl)C(=O)OCc1cccnc1 [302(R)] | 5 (Level 5: growth control rate is above 85%) | 5 (Level 5: growth control rate is above 85%) | 5 (Level 5: growth control rate is above 85%) | 5 (Level 5: growth control rate is above 85%) | 5 (Level 5: growth control rate is above 85%) | 5 (Level 5: growth control rate is above 85%) | – |
| CC(C#N)COC(=O)C(C)O/N=C/c1cc(-n2c(=O)cc(C(F)(F)F)n(C)c2=O)c(F)cc1Cl (stereo not drawn) [Compound 445] | – | – | – | – | – | – | Weeding effect in post-emergence stage, Eleusine indica (level) ([1]; Dose 15 g/ha): 5 (Level 5: growth control rate is above 85%); Weeding effect in post-emergence stage, Alopecurus japonicus (level) ([2]; Dose 15 g/ha): 5 (Level 5: growth control rate is above 85%); Weeding effect in post-emergence stage, Digitaria sanguinalis (level) ([3]; Dose 15 g/ha): 5 (Level 5: growth control rate is above 85%); Weeding effect in post-emergence stage, Abutilon theophrasti (level) ([4]; Dose 15 g/ha): 5 (Level 5: growth control rate is above 85%); Weeding effect in post-emergence stage, Setaria viridis (level) ([5]; Dose 15 g/ha): 5 (Level 5: growth control rate is above 85%); Weeding effect in post-emergence stage, Echinochloa crusgalli (level) ([6]; Dose 15 g/ha): 5 (Level 5: growth control rate is above 85%) |
| CCSC(=O)[C@@H](C)O/N=C/c1cc(-n2c(=O)n(C)c(=S)n(C)c2=O)c(F)cc1Cl [168(R)] | 5 (Level 5: growth control rate is above 85%) | 5 (Level 5: growth control rate is above 85%) | 5 (Level 5: growth control rate is above 85%) | 5 (Level 5: growth control rate is above 85%) | 5 (Level 5: growth control rate is above 85%) | 5 (Level 5: growth control rate is above 85%) | – |
| C/C(=N\OC(=O)[C@@H](C)O/N=C/c1cc(-n2c(=O)cc(C(F)(F)F)n(C)c2=O)c(F)cc1Cl)C(C)C [250(R)] | 5 (Level 5: growth control rate is above 85%) | 5 (Level 5: growth control rate is above 85%) | 5 (Level 5: growth control rate is above 85%) | 5 (Level 5: growth control rate is above 85%) | 5 (Level 5: growth control rate is above 85%) | 5 (Level 5: growth control rate is above 85%) | – |
